Like-named read-outs stand apart in the source and are kept apart here.
Molecular target: T1, human α-synuclein (Homo sapiens, UniProt P37840)
T1 construct: the full-length gene for untagged human α-synuclein was inserted; made in house; host or cells: E. coli BL21(DE3), plasmid derived from pT7 or pET11a
Assay: Cell-free Thioflavin T assay of α-synuclein aggregation (αSyn ThT Assay)
Type: biochemical
Details: αSyn 50 μM
Outline: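 Untagged full-length human α-synuclein from E. coli, 50 μM, with 20-40 μM ThT, 1% DMSO, compound at 20-100 μM and a glass bead, 37° C. with shaking. Fluorescence (ex 438/em 495 nm) read hourly to 73 h. Compound-only background subtracted and values normalised to vehicle at 36-72 h or final timepoint, giving % inhibition.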

Row | Compound | inhibition at 100 µM (class symbol, compounds 100 μM, read-out: αSyn ThT Assay % inhibition, activity range) [%] | inhibition at 100 µM (mean percent inhibition relative to DMSO control, compounds 100 μM, read-out: αSyn ThT Assay % inhibition) [%] | inhibition at 100 µM (mean % inhibition of αSyn aggregation relative to DMSO control, compounds at 100 μM, read-out: αSyn ThT Assay % Inhibition) [%] | inhibition at 100 µM (compounds at 100 μM, class symbol, read-out: αSyn ThT Assay % Inhibition (activity range)) [%]
1 | O=C(O)C1CN(Cc2ccccc2)c2c(-c3cccc(C(F)(F)F)c3)c(C(F)(F)c3cccc4ccccc34)c(Br)c(=O)n21 (stereo not shown) [Compound 155, 1-benzyl-6-bromo-7-(difluoro(naphthalen-1-yl)methyl)-5-oxo-8-(3-(trifluoromethyl)phenyl)-1,2,3,5-tetrahydroimidazo[1,2-a]pyridine-3-carboxylic acid] | 31 to 60 | 60 |  | 
2 | Cn1c(=O)c2c(nc(CCCCCCN3CC(C(=O)O)n4c(c(-c5cccc(C(F)(F)F)c5)c(Cc5cccc6ccccc56)cc4=O)S3(=O)=O)n2C)n(C)c1=O (stereo not shown) [Compound 046, 8-(naphthalen-1-ylmethyl)-6-oxo-9-(3-(trifluoromethyl)phenyl)-2-(6-(1,3,7-trimethyl-2,6-dioxo-2,3,6,7-tetrahydro-1H-purin-8-yl)hexyl)-3,4-dihydro-2H,6H-pyrido[1,2-e][1,2,5]thiadiazine-4-carboxylic acid 1,1-dioxide] |  |  | 28 | 11 to 30

Reference: patent publication US20230131899A1, “INHIBITORS OF MICROBIALLY INDUCED AMYLOID” (Axial Therapeutics, Inc., priority 2020, published 2023)
